{"source": "patent US20240124428A1", "about": "“HETEROCYCLIC INHIBITORS OF PCSK9” (CARDIO THERAPEUTICS PTY LTD, priority 2020, published 2024)", "origin": "cited, not measured here", "key": {"[1]": {"settings": "data from Evison et al. 2020; conditions not given; cited from earlier work"}, "CYP3A4": {"target": "T1, CYP3A4 (Homo sapiens, UniProt P08684)", "T1 construct": "using human liver microsomes; from tissue; host or cells: human liver microsomes", "T1 sequence (P08684 whole entry)": "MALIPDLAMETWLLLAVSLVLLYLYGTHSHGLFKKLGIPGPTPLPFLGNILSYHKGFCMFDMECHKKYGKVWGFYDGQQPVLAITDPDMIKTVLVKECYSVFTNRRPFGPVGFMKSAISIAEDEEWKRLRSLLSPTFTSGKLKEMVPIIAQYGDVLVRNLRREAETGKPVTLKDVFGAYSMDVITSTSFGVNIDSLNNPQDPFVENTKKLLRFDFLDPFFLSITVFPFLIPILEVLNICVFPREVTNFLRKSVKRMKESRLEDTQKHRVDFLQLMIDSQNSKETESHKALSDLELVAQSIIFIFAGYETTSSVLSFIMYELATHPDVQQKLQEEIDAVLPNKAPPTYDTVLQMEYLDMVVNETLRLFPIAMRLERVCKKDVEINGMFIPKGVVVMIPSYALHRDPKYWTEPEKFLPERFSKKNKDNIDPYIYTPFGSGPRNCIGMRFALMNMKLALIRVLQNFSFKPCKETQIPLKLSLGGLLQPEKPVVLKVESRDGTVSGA", "settings": "data from Evison et al. 2020; cited from earlier work"}, "hERG channel": {"target": "T2, hERG channel (Homo sapiens, UniProt Q12809)", "T2 construct": "expressed in transfected cells; host or cells: CHO", "T2 sequence (Q12809 whole entry)": "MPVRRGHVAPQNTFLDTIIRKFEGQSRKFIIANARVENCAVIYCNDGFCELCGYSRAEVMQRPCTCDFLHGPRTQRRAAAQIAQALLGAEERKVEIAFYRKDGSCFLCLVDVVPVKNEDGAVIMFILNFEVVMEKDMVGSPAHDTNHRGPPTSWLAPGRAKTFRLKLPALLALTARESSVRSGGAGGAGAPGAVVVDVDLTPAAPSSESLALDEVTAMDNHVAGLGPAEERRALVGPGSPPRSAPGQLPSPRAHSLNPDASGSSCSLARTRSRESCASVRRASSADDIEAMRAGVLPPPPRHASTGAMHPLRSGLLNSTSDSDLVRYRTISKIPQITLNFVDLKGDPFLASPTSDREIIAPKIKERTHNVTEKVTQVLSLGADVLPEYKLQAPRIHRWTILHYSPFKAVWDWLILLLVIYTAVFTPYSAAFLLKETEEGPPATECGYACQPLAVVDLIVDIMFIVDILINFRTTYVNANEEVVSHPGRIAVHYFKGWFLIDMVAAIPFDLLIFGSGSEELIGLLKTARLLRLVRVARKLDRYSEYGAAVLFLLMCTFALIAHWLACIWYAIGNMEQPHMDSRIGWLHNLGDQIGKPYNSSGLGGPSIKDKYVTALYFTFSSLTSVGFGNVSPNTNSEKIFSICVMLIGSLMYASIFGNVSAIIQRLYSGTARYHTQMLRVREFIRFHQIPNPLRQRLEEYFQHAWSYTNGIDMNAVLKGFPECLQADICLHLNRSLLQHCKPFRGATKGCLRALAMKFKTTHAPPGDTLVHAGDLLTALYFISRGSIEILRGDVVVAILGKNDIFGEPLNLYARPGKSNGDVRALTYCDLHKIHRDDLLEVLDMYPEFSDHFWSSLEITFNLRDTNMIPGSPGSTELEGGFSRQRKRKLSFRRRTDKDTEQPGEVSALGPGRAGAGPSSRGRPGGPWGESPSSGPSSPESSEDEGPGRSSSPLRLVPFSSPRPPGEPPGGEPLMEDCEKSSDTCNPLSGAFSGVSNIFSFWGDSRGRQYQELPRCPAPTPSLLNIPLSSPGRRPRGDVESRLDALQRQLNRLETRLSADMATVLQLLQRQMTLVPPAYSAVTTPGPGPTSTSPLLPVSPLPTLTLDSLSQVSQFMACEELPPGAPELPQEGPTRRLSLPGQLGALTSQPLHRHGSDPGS", "settings": "data from Evison et al. 2020; cited from earlier work"}, "HepG2 cells": {"test_system": "HepG2 cells", "settings": "data from Evison et al. 2020; read-out: HepG2 cytotoxicity IC50; cited from earlier work"}, "[2]": {"target": "T3, binding between PCSK9 and the LDL receptor (Homo sapiens, UniProt Q8NBP7)", "T3 construct": "purchased CircuLex", "T3 sequence (Q8NBP7 153-692)": "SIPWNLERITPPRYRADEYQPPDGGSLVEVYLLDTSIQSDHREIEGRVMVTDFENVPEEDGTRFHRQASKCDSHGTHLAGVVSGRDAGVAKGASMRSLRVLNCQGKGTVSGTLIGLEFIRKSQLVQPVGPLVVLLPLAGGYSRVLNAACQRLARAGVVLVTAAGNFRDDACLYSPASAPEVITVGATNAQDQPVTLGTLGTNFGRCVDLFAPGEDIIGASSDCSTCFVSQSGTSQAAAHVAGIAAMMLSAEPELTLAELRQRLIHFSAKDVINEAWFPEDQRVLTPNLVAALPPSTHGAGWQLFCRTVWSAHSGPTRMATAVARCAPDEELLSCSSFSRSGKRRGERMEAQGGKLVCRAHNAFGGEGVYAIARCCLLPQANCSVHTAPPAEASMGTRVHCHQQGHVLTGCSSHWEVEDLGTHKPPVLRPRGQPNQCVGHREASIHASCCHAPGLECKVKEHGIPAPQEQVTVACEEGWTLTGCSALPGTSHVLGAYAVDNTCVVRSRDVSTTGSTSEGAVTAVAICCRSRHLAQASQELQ", "T3 sequence (Q8NBP7 31-152 partner limits assumed)": "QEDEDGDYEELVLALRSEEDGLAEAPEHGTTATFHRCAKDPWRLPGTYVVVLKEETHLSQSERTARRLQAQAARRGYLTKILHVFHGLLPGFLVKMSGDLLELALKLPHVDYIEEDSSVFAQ", "settings": "comparator; data from Evison et al. 2020; read-out: PCSK9-LDLR binding assay IC50; cited from earlier work"}, "CYP2D6": {"target": "T4, CYP2D6 (Homo sapiens, UniProt P10635)", "T4 construct": "using human liver microsomes; from tissue; host or cells: human liver microsomes", "T4 sequence (P10635 whole entry)": "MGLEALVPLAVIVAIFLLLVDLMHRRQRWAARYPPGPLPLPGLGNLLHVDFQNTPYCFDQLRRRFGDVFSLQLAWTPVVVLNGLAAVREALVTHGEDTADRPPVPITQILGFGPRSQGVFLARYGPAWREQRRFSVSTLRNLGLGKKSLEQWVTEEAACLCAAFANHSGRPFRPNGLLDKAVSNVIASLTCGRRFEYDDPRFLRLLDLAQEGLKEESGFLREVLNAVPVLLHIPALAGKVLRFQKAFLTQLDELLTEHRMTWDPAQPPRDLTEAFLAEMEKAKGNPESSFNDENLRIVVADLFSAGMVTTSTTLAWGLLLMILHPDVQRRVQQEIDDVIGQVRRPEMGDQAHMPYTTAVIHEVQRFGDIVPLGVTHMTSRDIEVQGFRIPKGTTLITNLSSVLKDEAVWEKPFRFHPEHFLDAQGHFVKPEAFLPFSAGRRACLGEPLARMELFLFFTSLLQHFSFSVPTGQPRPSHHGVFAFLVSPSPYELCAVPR", "settings": "data from Evison et al. 2020; cited from earlier work"}}, "note": "pIC50: −log10 of the molar value. Marks after values point to notes of the source that are not given here.", "data": [{"smiles": "Cc1cn(-c2cc(CN3CCC[C@H](N)C3)cc(NC(=O)c3ccc(C)c(Oc4ccccc4)c3)c2)cn1", "note": "[3f]", "values": [{"measurement": "AUClast (h*ng/ml)", "setting": "[1]", "result": "92.3** h*ng/ml"}, {"measurement": "Bioavailability (%)", "setting": "[1]", "result": "0.5** %"}, {"measurement": "CMax (ng/ml)", "setting": "[1]", "result": "52.5** ng/ml"}, {"measurement": "VSS (L/kg)", "setting": "[1]", "result": "3.87** L/kg"}, {"measurement": "CYP3A4 (% inhibition at 10 μM)", "setting": "CYP3A4", "result": 95.0, "unit": "%"}, {"measurement": "pIC50", "setting": "hERG channel", "result": 4.72}, {"measurement": "pIC50", "setting": "HepG2 cells", "result": 5.28}, {"measurement": "pIC50", "setting": "[2]", "result": 6.03}, {"measurement": "CYP2D6 (% inhibition at 10 μM)", "setting": "CYP2D6", "result": 82.2, "unit": "%"}]}]}
